Where “and” joins values, the source holds several entries; their conditions need not be identical. Identical values can stand only once.

The subject of experiment [1] is RAMOS human Burkitt's lymphoma cells. Nature of the experiment: Subcutaneously (SC)-implanted human Ramos Burkitt's B-cell lymphoma tumor growth model. It is filed as in vivo, SCID mice. As to conditions: for Increased time to 4000 mg [%] / Reduced tumor growth at study Day 38 (%): control 0; for Tumor Volume at study day 38, Average: vehicle average 4014.
For experiment [2], the system named is RAMOS human lymphoma cells. It is filed as in vivo, SCID mice. As to conditions: MOR208 3 mg/kg i.v. twice weekly for 3 weeks; FLU 125 mg/kg i.p. once daily Day 0-5; combination of both; vehicle 18.5.
The test system of experiment [3] is MEC-1 cells. Nature of the experiment: ADCC / cytotoxicity assay: killing of MEC-1 cells by MOR208 and fludarabine alone and in combination. It is filed as cell-based, human. To be noted: for normalized specific killing: background subtracted, combination set to 1, Fludarabine 18 μg/ml, MOR208 66 pM; for % dead cells: raw data, MOR208 66 pm, FLU 18 μg/ml, 72 h pre-incubation, E:T 30:1, 4 h.

Experiment [4] deals with T1, Human CD19 (human, UniProt P15391 20-556).
T1 sequence: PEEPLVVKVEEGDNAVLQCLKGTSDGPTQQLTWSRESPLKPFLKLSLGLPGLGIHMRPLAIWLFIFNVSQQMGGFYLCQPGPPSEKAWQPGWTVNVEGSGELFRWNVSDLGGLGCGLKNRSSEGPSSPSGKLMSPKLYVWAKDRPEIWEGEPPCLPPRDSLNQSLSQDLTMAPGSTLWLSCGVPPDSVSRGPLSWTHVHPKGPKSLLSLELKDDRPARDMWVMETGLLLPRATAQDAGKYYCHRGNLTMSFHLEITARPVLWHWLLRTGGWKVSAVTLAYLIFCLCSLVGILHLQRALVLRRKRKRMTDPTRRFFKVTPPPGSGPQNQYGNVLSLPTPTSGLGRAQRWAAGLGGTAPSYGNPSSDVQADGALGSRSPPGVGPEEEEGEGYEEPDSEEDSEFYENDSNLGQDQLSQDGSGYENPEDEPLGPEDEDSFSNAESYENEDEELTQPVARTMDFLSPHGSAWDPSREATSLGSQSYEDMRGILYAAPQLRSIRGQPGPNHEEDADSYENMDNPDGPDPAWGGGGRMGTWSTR
Description: cell-based or functional assay.

The mark [5] stands for this setting: MOR208 10 mg/kg, FLU 125 mg/kg, combination of MOR208 and FLU 125.
[6] abbreviates: MOR208 10 mg/kg, Fludarabine 125 mg/kg IP Q1Dx5, combination MOR208/FLU 125.
Where [7] appears, read: MOR208 10 mg/kg, Fludarabine 125 mg/kg, MOR208 + FLU 125 combination.
[8] abbreviates: Experiment 1 (PBMC donor 1), control RefMab33.
Where [9] appears, read: Experiment 2 (PBMC donor 2), control RefMab33.
The mark [10] stands for this setting: Experiment 3 (PBMC donor 3), control PBMCs alone.

Fludarabine [reference compound]: the “Increased time to 4000 mg [%]” value in experiment [1] (FLU 250 mg/kg) was 30.19%; in experiment [1] (setting [5]), 22.37%. In addition, the “Reduced tumor growth at study Day 38 (%)” value in experiment [1] (FLU 250 mg/kg) stood at 64.8%; in experiment [1] (setting [5]), 48.3%. Besides, the “Increased time to 4000 mg [%], normalized to Fractional Product combination = 1” value in experiment [1] (Fludarabine 250 mg/kg) was 0.8; in experiment [1] (setting [7]) it was 0.62. In addition, the results for the “Reduced tumor growth at study Day 38 (%), normalized to Fractional Product combination = 1” value in experiment [1] (Fludarabine 250 mg/kg) and in experiment [1] (setting [7]) were 0.9 and 0.75, respectively. Further, the “Tumor Volume at study day 38, Average” value in experiment [1] (Fludarabine 250 mg/kg IP Q1Dx5) was 1413 mm^3; in experiment [1] (setting [6]) it was 2073 mm^3. For the same molecule, the “Median Survival Time” value in experiment [2] worked out at 22 days. The normalized specific killing in experiment [3] (Average of Experiments 1-3) amounted to 0.7; in experiment [3] (Experiment 1), 0.6; in experiment [3] (Experiment 2) it was 0.7; in experiment [3] (Experiment 3), 0.8. Also, the “% dead cells” value in experiment [3] (setting [8]) was 36.39%; in experiment [3] (setting [9]) it was 38.48%; in experiment [3] (setting [10]), 57.27%. Moreover, the “EC50 (MEC-1 cell killing)” value in experiment [3] (FLU, test concentration stated to be near or at the EC50) was approximately 18 µg/mL.

B1: MOR208 (antibody, human IgG1, kappa, V domains shown)
VH: EVQLVESGGGLVKPGGSLKLSCAASGYTFTSYVMHWVRQAPGKGLEWIGYINPYNDGTKYNEKFQGRVTISSDKSISTAYMELSSLRSEDTAMYYCARGTYYYGTRVFDYWGQGTLVTVSS
VL: DIVMTQSPATLSLSPGERATLSCRSSKSLQNVNGNTYLYWFQQKPGQSPQLLIYRMSNLNSGVPDRFSGSGSGTEFTLTISSLEPEDFAVYYCMQHLEYPITFGAGTKLEIKR
On to B1, for which, in experiment [4], the “EC50 of MEC-1 cell killing (ADCC)” value is approximately 0.066 nM.

B2: MOR208: anti-CD19 antibody; variable domains in FIG. 3, Fc regions in FIG. 4 (antibody)
heavy: EVQLVESGGGLVKPGGSLKLSCAASGYTFTSYVMHWVRQAPGKGLEWIGYINPYNDGTKYNEKFQGRVTISSDKSISTAYMELSSLRSEDTAMYYCARGTYYYGTRVFDYWGQGTLVTVSSASTKGPSVFPLAPSSKSTSGGTAALGCLVKDYFPEPVTVSWNSGALTSGVHTFPAVLQSSGLYSLSSWTVPSSSLGTQTYICNVNHKPSNTKVDKKVEPKSCDKTHTCPPCPAPELLGGPDVFLFPPKPKDTLMISRTPEVTCVVVDVSHEDPEVQFNWYVDGVEVHNAKTKPREEQFNSTFRVVSVLTVVHQDWLNGKEYKCKVSNKALPAPEEKTISKTKGQPREPQVYTLPPSREEMTKNQVSLTCLVKGFYPSDIAVEWESNGQPENNYKTTPPMLDSDGSFFLYSKLTVDKSRWQQGNVFSCSVMHEALHNHYTQKSLSLSPGK
light: DIVMTQSPATLSLSPGERATLSCRSSKSLQNVNGNTYLYWFQQKPGQSPQLLIYRMSNLNSGVPDRFSGSGSGTEFTLTISSLEPEDFAVYYCMQHLEYPITFGAGTKLEIKRTVAAPSVFIFPPSDEQLKSGTASVVCLLNNFYPREAKVQWKVDNALQSGNSQESVTEQDSKDSTYSLSSTLTLSKADYEKHKVYACEVTHQGLSSPVTKSFNRGEC
In the case of B2, in experiment [1] (setting [5]), the “Increased time to 4000 mg [%]” value is on record as 17.52%. Also, the “Reduced tumor growth at study Day 38 (%)” value in experiment [1] (setting [5]) came out at 38.5%. Also, in experiment [1] (setting [6]), the “Tumor Volume at study day 38, Average” value was 2468 mm^3. In addition, the “Increased time to 4000 mg [%], normalized to Fractional Product combination = 1” value in experiment [1] (setting [7]) was determined as 0.48. Also, the “Reduced tumor growth at study Day 38 (%), normalized to Fractional Product combination = 1” value in experiment [1] (setting [7]) came to 0.57. Moreover, the “Tumor Volume at study day 38” value in experiment [1] (single values (Group 1-8), MOR208 10 mg/kg, Fludarabine 125 mg/kg IP Q1Dx5, combination MOR208/FLU 125) was 1764 mm^3 and 1862 mm^3 and 3402 mm^3 and 2560 mm^3 and 2816 mm^3 and 2138 mm^3 and 2025 mm^3 and 3179 mm^3. Also, in experiment [2], the “Median Survival Time” value stood at 23.5 days. Besides, the normalized specific killing in experiment [3] (Average of Experiments 1-3) is listed as 0.5; in experiment [3] (Experiment 1), 0.6; in experiment [3] (Experiment 2), 0.4; in experiment [3] (Experiment 3), 0.5. Also, the “% dead cells” value in experiment [3] (setting [8]) is reported as 35.2%; in experiment [3] (setting [9]), 29.8%; in experiment [3] (setting [10]) it was 47.01%.
